From patent US8513422B2, “Piperidine derivative” (Astellas Pharma Inc., priority 2007, dated 2013)

Target: T1, human 17βHSD type 3 (Homo sapiens, UniProt P37058)
T1 construct: A full-length cDNA encoding human 17βHSD type 3 used in the pharmacological test of the present invention; expressed in transfected cells; host or cells: 293 cells (human fetus kidney-derived); supernatant of disrupted cells
T1 sequence (P37058 1-310): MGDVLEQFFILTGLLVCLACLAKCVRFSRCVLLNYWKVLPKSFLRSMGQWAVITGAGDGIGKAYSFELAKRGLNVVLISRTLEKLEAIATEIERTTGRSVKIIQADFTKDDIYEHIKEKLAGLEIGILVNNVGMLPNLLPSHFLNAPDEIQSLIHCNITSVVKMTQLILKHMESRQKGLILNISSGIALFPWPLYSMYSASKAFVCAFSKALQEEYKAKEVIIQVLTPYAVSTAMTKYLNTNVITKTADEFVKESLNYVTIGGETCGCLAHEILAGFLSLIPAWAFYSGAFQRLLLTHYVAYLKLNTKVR
Assay: Measurement of enzyme activity of human 17βHSD type 3
Format: biochemical
Details: supernatant of transformed 293 cells as enzyme source
Procedure: A full-length cDNA encoding human 17βHSD type 3 used in the pharmacological test of the present invention was obtained by the PCR method using a cDNA derived from human testis as a template. The nucleotide sequence of the obtained cDNA was analyzed by the dideoxyterminator method, and the clone matched with the known human 17βHSD type 3 sequence (GenBank accession No. BC034281) was selected. Subsequently, human fetus kidney-derived cell line, 293 cells, were transformed with a plasmid containing the cDNA, and the cells were collected 24 hours later. The collected cells were then disrupted in a phosphate buffer solution containing 5% glycerol (500 μL per 100 mm-dish of a phosphate buffer solution (pH 7.4, 200 mM) containing 5% glycerol) and centrifuged (16000 rpm, 5 min, 4° C.), and the supernatant was used as an enzyme source.
Enzyme activity was measured referring to Trevor M. Penning, et al., Biochem. J., 351, 67-77, (2000). Specifically, using a 100 mM potassium phosphate buffer (pH 6.0), (1) the enzyme purified in section 1 above at a final concentration of 10 μg/mL, (2) androstenedione at a final concentration of 300 nM, (3) NADPH at a final concentration of 200 μM, and (4) a test substance, were mixed to react at room temperature for 2 hours, and then the amount of testosterone produced was measured using DELFIA (registered trademark) Testosterone Reagents R050-201 (manufactured by PerkinElmer). The measurement was performed in accordance with the attached instructions. The amount of reduction of testosterone production in the presence of the compound was obtained as a relative value with respect to the amount of testosterone in the absence of the enzyme set at 0% and the amount of testosterone produced in the absence of the compound set at 100%. Then, IC50 values were calculated by the Logistic regression method.

SMILES	IC50 [nM]
CC(C)(O)CC1CCN(C(=O)c2cc3cc([N+](=O)[O-])ccc3[nH]2)CC1 [Example 20, 2-methyl-1-{1-[(5-nitro-1H-indol-2-yl)carbonyl]piperidin-4-yl}propan-2-ol]	> 10000
CC(O)CC1CCN(C(=O)c2cc3ccccc3[nH]2)CC1 (stereo not drawn) [Example 30, 1-[1-(1H-indol-2-ylcarbonyl)piperidin-4-yl]propan-2-ol]	> 10000
COc1ccc2[nH]c(C(=O)N3CCC(CC(C)(C)O)CC3)cc2c1 [Example 25, 1-{1-[(5-methoxy-1H-indol-2-yl)carbonyl]piperidin-4-yl}-2-methylpropan-2-ol]	> 10000
Cc1ccc2[nH]c(C(=O)N3CCC(CCO)CC3)cc2c1 [Example 22, 2-{1-[(5-methyl-1H-indol-2-yl)carbonyl]piperidin-4-yl}ethanol]	> 10000
CC(C)(O)CC1CCN(C(=O)c2cc3cc(O)ccc3[nH]2)CC1 [Example 15, 2-{[4-(2-hydroxy-2-methylpropyl)piperidin-1-yl]carbonyl}-1H-indol-5-ol]	> 10000
CC(C)(O)CC1CCN(C(=O)c2cc3cc(Cl)ccc3[nH]2)CC1 [Example 1, 1-{1-[(5-chloro-1H-indol-2-yl)carbonyl]piperidin-4-yl}-2-methylpropan-2-ol]	> 10000
Cc1ccc2[nH]c(C(=O)N3CCC(CC(C)(C)O)CC3)c(C)c2c1 [Example 17, 1-{1-[(3,5-dimethyl-1H-indol-2-yl)carbonyl]piperidin-4-yl}-2-methylpropan-2-ol]	> 10000
Cc1ccc2[nH]c(C(=O)N3CCC(CC(C)(C)O)CC3)cc2c1 [Example 24, 2-methyl-1-{1-[(5-methyl-1H-indol-2-yl)carbonyl]piperidin-4-yl}propan-2-ol]	> 10000
CC(C)(O)CC1CCN(C(=O)c2cc3ccccc3[nH]2)CC1 [Example 9, 1-[1-(1H-indol-2-ylcarbonyl)piperidin-4-yl]-2-methylpropan-2-ol]	> 10000

System: 5α-reductase
Assay: not given
Details: patients with BPH, after administration; cited from earlier work

SMILES	concentration of DHT in the prostate relative to the concentration before the administration	increase of concentration of testosterone in the prostate [fold]
CC(C)(C)NC(=O)[C@H]1CC[C@H]2[C@@H]3CC[C@H]4NC(=O)C=C[C@]4(C)[C@H]3CC[C@]12C [finasteride]	about 20%	4

System: not given
Assay: not given
Details: not given

SMILES	melting point [°C]
CC(C)(O)CC1CCN(C(=O)c2cc3cc([N+](=O)[O-])ccc3[nH]2)CC1 [Example 20, 2-methyl-1-{1-[(5-nitro-1H-indol-2-yl)carbonyl]piperidin-4-yl}propan-2-ol]	223 to 225
CC(O)CC1CCN(C(=O)c2cc3ccccc3[nH]2)CC1 (stereo not drawn) [Example 30, 1-[1-(1H-indol-2-ylcarbonyl)piperidin-4-yl]propan-2-ol]	163 to 167
Cc1ccc2[nH]c(C(=O)N3CCC(CCO)CC3)cc2c1 [Example 22, 2-{1-[(5-methyl-1H-indol-2-yl)carbonyl]piperidin-4-yl}ethanol]	163 to 165
CC(C)(O)CC1CCN(C(=O)c2cc3cc(O)ccc3[nH]2)CC1 [Example 15, 2-{[4-(2-hydroxy-2-methylpropyl)piperidin-1-yl]carbonyl}-1H-indol-5-ol]	212 to 219
CC(C)(O)CC1CCN(C(=O)c2cc3cc(Cl)ccc3[nH]2)CC1 [Example 1, 1-{1-[(5-chloro-1H-indol-2-yl)carbonyl]piperidin-4-yl}-2-methylpropan-2-ol]	178 to 180
Cc1ccc2[nH]c(C(=O)N3CCC(CC(C)(C)O)CC3)c(C)c2c1 [Example 17, 1-{1-[(3,5-dimethyl-1H-indol-2-yl)carbonyl]piperidin-4-yl}-2-methylpropan-2-ol]	166 to 168
Cc1ccc2[nH]c(C(=O)N3CCC(CC(C)(C)O)CC3)cc2c1 [Example 24, 2-methyl-1-{1-[(5-methyl-1H-indol-2-yl)carbonyl]piperidin-4-yl}propan-2-ol]	149 to 150
CC(C)(O)CC1CCN(C(=O)c2cc3ccccc3[nH]2)CC1 [Example 9, 1-[1-(1H-indol-2-ylcarbonyl)piperidin-4-yl]-2-methylpropan-2-ol]	153 to 163

Target: T2, human 17βHSD type 5 (Homo sapiens, UniProt P42330)
T2 construct: A full-length cDNA encoding human 17βHSD type 5 used in the pharmacological test of the present invention; made in house; host or cells: Escherichia coli BL21
T2 sequence (P42330 1-323): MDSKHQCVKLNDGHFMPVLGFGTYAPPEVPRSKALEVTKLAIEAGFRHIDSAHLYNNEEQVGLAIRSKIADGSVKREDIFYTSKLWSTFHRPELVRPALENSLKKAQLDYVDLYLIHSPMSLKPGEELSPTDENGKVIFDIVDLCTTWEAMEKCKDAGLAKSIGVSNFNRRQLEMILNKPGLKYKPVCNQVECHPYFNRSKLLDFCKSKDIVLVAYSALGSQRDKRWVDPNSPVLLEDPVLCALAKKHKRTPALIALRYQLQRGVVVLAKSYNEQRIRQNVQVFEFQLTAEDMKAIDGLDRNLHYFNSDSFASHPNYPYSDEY
Assay: Measurement of enzyme activity of human 17βHSD type 5 (testosterone production from androstenedione, DELFIA)
Format: biochemical
Details: purified enzyme 10 μg/mL, androstenedione 300 nM, NADPH 200 μM, pH 6.0, room temperature, 2 hours
Text: A full-length cDNA encoding human 17βHSD type 5 used in the pharmacological test of the present invention was obtained by the PCR method using a cDNA derived from a human lung cancer-derived cell line, A549 cells as a template. […] Escherichia coli BL21 was transformed with a plasmid containing the cDNA and cultured on a large scale. The proteins were purified by using GSTrapFF column (manufactured by Amersham) and PreScissionProtease (manufactured by Amersham). The purification method was carried out in accordance with the instructions attached to the GSTrapFF column.
The measurement was performed in accordance with the attached instructions. The amount of reduction of testosterone production in the presence of the compound was obtained as a relative value with respect to the amount of testosterone in the absence of the enzyme set at 0% and the amount of testosterone produced in the absence of the compound set at 100%. Then, IC50 values were calculated by the Logistic regression method.

SMILES	IC50 [nM]
CC(C)(O)CC1CCN(C(=O)c2cc3cc([N+](=O)[O-])ccc3[nH]2)CC1 [Example 20, 2-methyl-1-{1-[(5-nitro-1H-indol-2-yl)carbonyl]piperidin-4-yl}propan-2-ol]	15
CC(O)CC1CCN(C(=O)c2cc3ccccc3[nH]2)CC1 (stereo not drawn) [Example 30, 1-[1-(1H-indol-2-ylcarbonyl)piperidin-4-yl]propan-2-ol]	26
Cc1ccc2[nH]c(C(=O)N3CCC(CCO)CC3)cc2c1 [Example 22, 2-{1-[(5-methyl-1H-indol-2-yl)carbonyl]piperidin-4-yl}ethanol]	21
CC(C)(O)CC1CCN(C(=O)c2cc3cc(O)ccc3[nH]2)CC1 [Example 15, 2-{[4-(2-hydroxy-2-methylpropyl)piperidin-1-yl]carbonyl}-1H-indol-5-ol]	15
CC(C)(O)CC1CCN(C(=O)c2cc3cc(Cl)ccc3[nH]2)CC1 [Example 1, 1-{1-[(5-chloro-1H-indol-2-yl)carbonyl]piperidin-4-yl}-2-methylpropan-2-ol]	4.5
Cc1ccc2[nH]c(C(=O)N3CCC(CC(C)(C)O)CC3)c(C)c2c1 [Example 17, 1-{1-[(3,5-dimethyl-1H-indol-2-yl)carbonyl]piperidin-4-yl}-2-methylpropan-2-ol]	390
Cc1ccc2[nH]c(C(=O)N3CCC(CC(C)(C)O)CC3)cc2c1 [Example 24, 2-methyl-1-{1-[(5-methyl-1H-indol-2-yl)carbonyl]piperidin-4-yl}propan-2-ol]	150
CC(C)(O)CC1CCN(C(=O)c2cc3ccccc3[nH]2)CC1 [Example 9, 1-[1-(1H-indol-2-ylcarbonyl)piperidin-4-yl]-2-methylpropan-2-ol]	130

Target: T3, LNCaP cells expressing human 17βHSD type 5 (Homo sapiens, UniProt P42330)
T3 sequence (P42330 1-323): T2 sequence (P42330 1-323)
Assay: Cell growth capability using LNCaP cells expressing human 17βHSD type 5 (CellTiter-Glo)
Format: cell-based
Details: androstenedione 10 nM, culturing for 7 days; read-out: LNCaP-17β5 IC50 (cell growth inhibitory activity)
Procedure: LNCaP cells of the human prostate cancer-derived cell line were transformed with a plasmid containing the clone selected in section 1 above and then a cell line showing stable expression was obtained.
9000 cells/well of the transformed cells obtained in section 4 above were seeded in a 96-well plate and cultured overnight. Then, androstenedione, in conjunction with a test compound, was added thereto at a final concentration of 10 nM, followed by culturing for 7 days. After the culturing, number of the cells was counted using a CellTiter-Glo (registered trademark) Luminescent Cell Viability Assay (Promega). The CellTiter-Glo (registered trademark) Luminescent Cell Viability Assay is a reagent that measures the number of the cells by monitoring an intracellular ATP level from the luminescence intensity by luciferase. The experimental manipulation was carried out in accordance with the attached instructions. The cell growth inhibitory activity in the presence of a test compound was calculated as a relative value with respect to the number of the cells in the absence of androstenedione set at proliferation of 0%, and the number of the cells in the presence of androstenedione and in the absence of the test compound set at proliferation of 100%. Then, IC50 values were calculated by the Logistic regression method.

SMILES	GI50 [nM]
CC(C)(O)CC1CCN(C(=O)c2cc3cc([N+](=O)[O-])ccc3[nH]2)CC1 [Example 20, 2-methyl-1-{1-[(5-nitro-1H-indol-2-yl)carbonyl]piperidin-4-yl}propan-2-ol]	29
CC(O)CC1CCN(C(=O)c2cc3ccccc3[nH]2)CC1 (stereo not drawn) [Example 30, 1-[1-(1H-indol-2-ylcarbonyl)piperidin-4-yl]propan-2-ol]	31
COc1ccc2[nH]c(C(=O)N3CCC(CC(C)(C)O)CC3)cc2c1 [Example 25, 1-{1-[(5-methoxy-1H-indol-2-yl)carbonyl]piperidin-4-yl}-2-methylpropan-2-ol]	12
Cc1ccc2[nH]c(C(=O)N3CCC(CCO)CC3)cc2c1 [Example 22, 2-{1-[(5-methyl-1H-indol-2-yl)carbonyl]piperidin-4-yl}ethanol]	60
CC(C)(O)CC1CCN(C(=O)c2cc3cc(O)ccc3[nH]2)CC1 [Example 15, 2-{[4-(2-hydroxy-2-methylpropyl)piperidin-1-yl]carbonyl}-1H-indol-5-ol]	18
CC(C)(O)CC1CCN(C(=O)c2cc3cc(Cl)ccc3[nH]2)CC1 [Example 1, 1-{1-[(5-chloro-1H-indol-2-yl)carbonyl]piperidin-4-yl}-2-methylpropan-2-ol]	8.9
Cc1ccc2[nH]c(C(=O)N3CCC(CC(C)(C)O)CC3)c(C)c2c1 [Example 17, 1-{1-[(3,5-dimethyl-1H-indol-2-yl)carbonyl]piperidin-4-yl}-2-methylpropan-2-ol]	20
Cc1ccc2[nH]c(C(=O)N3CCC(CC(C)(C)O)CC3)cc2c1 [Example 24, 2-methyl-1-{1-[(5-methyl-1H-indol-2-yl)carbonyl]piperidin-4-yl}propan-2-ol]	24
CC(C)(O)CC1CCN(C(=O)c2cc3ccccc3[nH]2)CC1 [Example 9, 1-[1-(1H-indol-2-ylcarbonyl)piperidin-4-yl]-2-methylpropan-2-ol]	10
